Results as given in patent EP1247803A2, “Indolinone compounds suitable for modulation of protein kinases” (Sugen, Inc., priority 1996, dated 1998).

How the values were obtained:
PDGF-R = PDGF-R (Homo sapiens, UniProt P09619); assay: PDGF-R ELISA; format: cell-based
Excerpt: A PDGF-R ELISA is described in International Patent Publication No. WO 96/40116, published December 19, 1996 by Tang et al.

FLK-1 receptor = molecular target: T1, FLK-1 receptor (Mus musculus, UniProt P35918); assay: FLK-1 ELISA (kinase activity of the FLK-1 receptor in FLK-1/NIH3T3 cells, VEGF stimulated); format: cell-based
T1 construct: expressed in transfected cells; host or cells: NIH3T3 C7#3
How it was run: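 An ELISA using affinity-purified rabbit anti-FLK-1 antiserum on anti-rabbit IgG-coated plates measured VEGF-stimulated FLK-1 kinase activity. NIH3T3 C7#3 cells carrying FLK-1 were serum-starved (0.1% FBS) overnight, then exposed to compound (final 1:200 dilution, 0.5% DMSO) for two hours at 37 °C.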

Chain of PDGF-R (P09619 33-1106, species assumed): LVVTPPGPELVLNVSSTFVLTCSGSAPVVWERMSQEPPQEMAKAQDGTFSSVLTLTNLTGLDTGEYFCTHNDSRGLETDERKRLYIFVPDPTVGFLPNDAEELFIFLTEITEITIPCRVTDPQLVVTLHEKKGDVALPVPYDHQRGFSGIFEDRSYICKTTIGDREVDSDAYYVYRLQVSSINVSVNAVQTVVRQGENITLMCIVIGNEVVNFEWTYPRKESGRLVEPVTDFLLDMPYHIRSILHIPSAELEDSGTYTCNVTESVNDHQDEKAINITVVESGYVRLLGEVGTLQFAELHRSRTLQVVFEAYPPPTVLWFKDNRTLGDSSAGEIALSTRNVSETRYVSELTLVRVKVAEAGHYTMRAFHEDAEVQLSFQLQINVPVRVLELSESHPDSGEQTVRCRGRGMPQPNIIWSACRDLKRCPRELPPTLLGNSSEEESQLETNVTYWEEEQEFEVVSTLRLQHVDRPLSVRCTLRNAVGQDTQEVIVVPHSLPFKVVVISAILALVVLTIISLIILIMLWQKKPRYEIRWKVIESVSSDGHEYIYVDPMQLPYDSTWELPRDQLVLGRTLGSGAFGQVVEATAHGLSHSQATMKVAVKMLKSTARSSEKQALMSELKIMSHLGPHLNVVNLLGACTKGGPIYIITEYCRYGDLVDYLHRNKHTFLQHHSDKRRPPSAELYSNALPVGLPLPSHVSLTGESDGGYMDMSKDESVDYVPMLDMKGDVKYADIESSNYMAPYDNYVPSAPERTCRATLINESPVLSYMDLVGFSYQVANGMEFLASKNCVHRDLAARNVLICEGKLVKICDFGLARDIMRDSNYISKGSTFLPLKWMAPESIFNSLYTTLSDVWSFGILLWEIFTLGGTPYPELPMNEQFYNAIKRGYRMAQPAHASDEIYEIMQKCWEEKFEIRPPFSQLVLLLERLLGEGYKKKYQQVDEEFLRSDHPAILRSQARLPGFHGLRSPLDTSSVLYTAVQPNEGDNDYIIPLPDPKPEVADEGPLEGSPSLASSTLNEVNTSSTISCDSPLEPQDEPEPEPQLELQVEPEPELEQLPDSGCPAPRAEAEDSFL
T1 sequence (P35918 20-1345): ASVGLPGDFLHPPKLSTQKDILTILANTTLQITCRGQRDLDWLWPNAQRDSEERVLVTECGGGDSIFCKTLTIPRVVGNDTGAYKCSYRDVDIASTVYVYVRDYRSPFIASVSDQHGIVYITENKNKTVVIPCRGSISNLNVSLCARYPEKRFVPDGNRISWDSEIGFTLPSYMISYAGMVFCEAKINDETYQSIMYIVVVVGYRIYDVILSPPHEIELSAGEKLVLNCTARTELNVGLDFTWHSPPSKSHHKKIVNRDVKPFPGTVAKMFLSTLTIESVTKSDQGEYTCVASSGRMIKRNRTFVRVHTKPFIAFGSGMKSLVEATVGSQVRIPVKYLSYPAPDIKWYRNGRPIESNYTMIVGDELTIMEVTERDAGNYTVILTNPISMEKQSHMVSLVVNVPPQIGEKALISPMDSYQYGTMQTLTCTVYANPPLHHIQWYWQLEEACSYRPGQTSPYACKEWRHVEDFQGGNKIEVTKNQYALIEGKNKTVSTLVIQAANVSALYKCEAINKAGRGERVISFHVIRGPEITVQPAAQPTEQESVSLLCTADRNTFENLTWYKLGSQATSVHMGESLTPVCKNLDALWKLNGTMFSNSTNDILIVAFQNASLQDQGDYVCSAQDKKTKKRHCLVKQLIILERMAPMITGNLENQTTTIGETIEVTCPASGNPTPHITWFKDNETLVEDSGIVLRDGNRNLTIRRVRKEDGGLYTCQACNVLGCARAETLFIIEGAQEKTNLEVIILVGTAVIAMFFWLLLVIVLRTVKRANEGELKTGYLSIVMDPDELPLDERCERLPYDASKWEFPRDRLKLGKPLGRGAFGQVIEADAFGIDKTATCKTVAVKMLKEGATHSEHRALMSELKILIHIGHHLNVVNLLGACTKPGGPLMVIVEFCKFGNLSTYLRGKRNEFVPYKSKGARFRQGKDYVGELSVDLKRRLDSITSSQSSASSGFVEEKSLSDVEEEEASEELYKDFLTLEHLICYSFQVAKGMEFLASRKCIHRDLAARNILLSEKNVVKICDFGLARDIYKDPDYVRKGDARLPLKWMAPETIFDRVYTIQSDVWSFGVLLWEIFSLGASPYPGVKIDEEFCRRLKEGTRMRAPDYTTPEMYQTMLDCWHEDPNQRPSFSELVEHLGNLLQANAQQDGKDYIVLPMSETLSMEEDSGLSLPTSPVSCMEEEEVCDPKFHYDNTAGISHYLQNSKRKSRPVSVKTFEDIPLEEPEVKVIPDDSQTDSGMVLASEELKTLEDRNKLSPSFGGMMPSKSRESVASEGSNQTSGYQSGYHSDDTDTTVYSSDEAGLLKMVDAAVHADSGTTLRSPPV

Compound	PDGF Kinase %Inhibition (PDGF-R)	Fik Kinase %Inhibition (FLK-1 receptor)
CNS(=O)(=O)c1ccc2c(c1)C(=Cc1cc([N+](=O)[O-])c(O)c(C(C)(C)C)c1)C(=O)N2 [10722/D02]	31.8%	30.7%
CNS(=O)(=O)c1ccc2c(c1)C(=Cc1cc(C)c(O)c(C)c1)C(=O)N2 [10722/D07]	25.5%	14.1%
O=C1Nc2c(Br)cc(Br)cc2C1=Cc1csc([N+](=O)[O-])c1 [10722/A09]	21.5%	7.3%
CNS(=O)(=O)c1ccc2c(c1)C(=Cc1c(O)cc(O)cc1O)C(=O)N2 [10722/D03]	-9.4%	15.0%
CNS(=O)(=O)c1ccc2c(c1)C(=Cc1ccc(C(F)(F)F)cc1)C(=O)N2 [10722/D11]	15.2%	9.6%
CNS(=O)(=O)c1ccc2c(c1)C(=Cc1csc([N+](=O)[O-])c1)C(=O)N2 [10722/D09]	30.6%	14.7%
O=C1Nc2ccc(S(=O)(=O)Nc3ccc(C(F)(F)F)cc3)cc2C1=Cc1csc([N+](=O)[O-])c1 [10722/E09]	26.6%	16.2%
CC(C)(C)c1cc(C=C2C(=O)Nc3ccc(I)cc32)cc([N+](=O)[O-])c1O [10722/B02]	28.9%	10.1%
O=C1Nc2ccc(S(=O)(=O)Nc3ccc(C(F)(F)F)cc3)cc2C1=Cc1c(O)cc(O)cc1O [10722/E03]	-7.2%	10.7%
O=C1Nc2c(Br)cc(Br)cc2C1=Cc1ccc(C(=O)O)cc1 [10722/A05]	33.5%	10.5%
O=C1Nc2ccc(I)cc2C1=Cc1ccc([N+](=O)[O-])s1 [10722/B04]	3.1%	14.7%
CCCCN(CCCC)c1ccc(C=C2C(=O)Nc3ccc(S(=O)(=O)NC)cc32)cc1 [10722/D10]	41.5%	8.2%
O=C1Nc2ccc(S(=O)(=O)Nc3ccc(C(F)(F)F)cc3)cc2C1=Cc1ccc(C(=O)O)cc1 [10722/E05]	19.2%	19.2%
